Experimental data reported in PubChem BioAssay (NCI).
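A five-concentration, 48-hour dose response in 96-well plates underlies each endpoint, interpolated linearly between surrounding concentrations. TGI: concentration producing complete growth inhibition.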

System: UACC-62 melanoma
Assay: DTP human tumour cell line panel, 48 h

Row | SMILES | TGI [µM]
1 | CCOC(=O)c1sc2c(c1OC(=O)c1ccc(OC)cc1)c(=O)n(-c1ccccc1)c(=S)n2-c1ccccc1 | > 100
2 | O=C(Cn1c(-c2ccccc2)cc2ccccc21)N1CCCC1 | > 100
3 | Cc1ccc(Cl)c2c(=O)c3ccc(N)cc3sc12 | 30.8
4 | C=CCN1CCC(O)(c2cc(C(=O)OCC)[nH]c2-c2cc(C)no2)C1 (stereo not drawn) | > 100
5 | CN(C)/N=C1/CCC(C(F)(F)F)(C(F)(F)F)O1 | 68.8
6 | N#Cc1c(-c2ccc(Cl)cc2)c(C#N)c(=O)n(NS(=O)(=O)c2ccccc2)c1O | 29.6
7 | CCOC(=O)NNC(=O)NCCCCNC(=O)NNC(=O)OCC | > 100
8 | COC(=O)c1nsc(OC)c1Cl | > 100
9 | [N-]=[N+]=NCc1nc(N)c2c3c(sc2n1)CCCC3 | 23.6
10 | CC(C)(C)OC/C=C(/CO)[C@@H]1C=C[C@H](O)C1 | > 100
11 | c1ccc2c(c1)SCCC2NC1=NCCO1 (stereo not drawn) | > 100
12 | C=CCN(C(=O)CNC(=O)C(F)(F)F)c1cc(OCc2ccccc2)c2c(c1)c(C)cn2S(=O)(=O)c1ccccc1 | > 100
13 | CSc1ccsc1-c1sc(-c2cc(SC)c(-c3sc(-c4cc(SC)c(-c5sccc5SC)s4)cc3SC)s2)cc1SC | > 100
14 | COc1cccc(C2c3cc4c(cc3OC(C)(N3CCCC3)C2C)OCO4)c1 (stereo not drawn) | 23.6
15 | CCSC1=N/C(=C\c2ccc(N(C)C)cc2)C(Cl)=N1 | > 100
16 | COC1(OC)CCCc2c1no[n+]2[O-] | > 100
17 | O=C(CC(C(=O)c1ccsc1)c1ccccc1)c1ccccc1 (stereo not drawn) | > 100
18 | CC1(C)OC[C@@H]([C@H](O)C2C=CC(=O)S2)O1 (stereo partly drawn) | 35.9
19 | Cc1cc(C(F)(F)F)cc(-n2nc(NS(=O)(=O)c3cc(C)c(Cl)cc3S)nc2N)n1 | > 100
20 | O=C1C=C(NCCOCCO)C(=O)c2c(O)ccc(O)c21 | 28.2
21 | CC(=O)O[C@H]1CC[C@@]2(C)C(=CC[C@H]3[C@@H]4C/C(=C\c5ccc(N(C)C)cc5)[C@H](OC(C)=O)[C@@]4(C)CC[C@@H]32)C1 | 20.7

System: RXF 393 renal
Assay: DTP human tumour cell line panel, 48 h

Row | SMILES | TGI [µM]
22 | Cn1c2c(c3ccccc31)CCN1C(=O)CN(C(=O)C3CCCCC3)CC21 (stereo not drawn) | > 100
23 | CC(=O)OCC1OC(OC2CC3C(C)(C)C(O)CC[C@]3(C)C3CCC45CC4(CCC5[C@@H](C)CC(O)C(O)C(C)(C)O)[C@]23C)C(O)C(O)C1O (stereo partly drawn) | > 10
24 | C=C(Nc1nc2ccc(C)cc2s1)C(=O)C(CC)C(=O)C(CC)CC1C(=O)NC(=O)NC1=O (stereo not drawn) | > 100
25 | COc1ccc(OC)c(/C=C(/C#N)c2ccccc2)c1 | 38.7
26 | COC(=O)C(C(=O)Cc1ccccc1[N+](=O)[O-])C(=O)OC | > 100
27 | CCOC(=O)c1sc2c(c1OC(=O)c1ccc(OC)cc1)c(=O)n(-c1ccccc1)c(=S)n2-c1ccccc1 | > 100
28 | Cc1ccc(Cl)c2c(=O)c3ccc(N)cc3sc12 | 59.3
29 | C=CCN1CCC(O)(c2cc(C(=O)OCC)[nH]c2-c2cc(C)no2)C1 (stereo not drawn) | > 100
30 | CN(C)/N=C1/CCC(C(F)(F)F)(C(F)(F)F)O1 | > 100
31 | N#Cc1c(-c2ccc(Cl)cc2)c(C#N)c(=O)n(NS(=O)(=O)c2ccccc2)c1O | 69.6
32 | CCOC(=O)NNC(=O)NCCCCNC(=O)NNC(=O)OCC | > 100
33 | COC(=O)c1nsc(OC)c1Cl | > 100
34 | [N-]=[N+]=NCc1nc(N)c2c3c(sc2n1)CCCC3 | 19.3
35 | c1ccc2c(c1)SCCC2NC1=NCCO1 (stereo not drawn) | > 100
36 | C=CCN(C(=O)CNC(=O)C(F)(F)F)c1cc(OCc2ccccc2)c2c(c1)c(C)cn2S(=O)(=O)c1ccccc1 | > 100
37 | CSc1ccsc1-c1sc(-c2cc(SC)c(-c3sc(-c4cc(SC)c(-c5sccc5SC)s4)cc3SC)s2)cc1SC | > 100
38 | COc1cccc(C2c3cc4c(cc3OC(C)(N3CCCC3)C2C)OCO4)c1 (stereo not drawn) | 51.9
39 | CCSC1=N/C(=C\c2ccc(N(C)C)cc2)C(Cl)=N1 | > 100
40 | COC1(OC)CCCc2c1no[n+]2[O-] | > 100
41 | O=C(CC(C(=O)c1ccsc1)c1ccccc1)c1ccccc1 (stereo not drawn) | > 100
42 | CC1(C)OC[C@@H]([C@H](O)C2C=CC(=O)S2)O1 (stereo partly drawn) | 53.5
43 | Cc1cc(C(F)(F)F)cc(-n2nc(NS(=O)(=O)c3cc(C)c(Cl)cc3S)nc2N)n1 | > 100
44 | O=C1C=C(NCCOCCO)C(=O)c2c(O)ccc(O)c21 | > 100
45 | CC(=O)O[C@H]1CC[C@@]2(C)C(=CC[C@H]3[C@@H]4C/C(=C\c5ccc(N(C)C)cc5)[C@H](OC(C)=O)[C@@]4(C)CC[C@@H]32)C1 | 42.7

System: NCI-H522 lung
Assay: DTP human tumour cell line panel, 48 h

Row | SMILES | TGI [µM]
46 | Cn1c2c(c3ccccc31)CCN1C(=O)CN(C(=O)C3CCCCC3)CC21 (stereo not drawn) | > 100
47 | CC(=O)OCC1OC(OC2CC3C(C)(C)C(O)CC[C@]3(C)C3CCC45CC4(CCC5[C@@H](C)CC(O)C(O)C(C)(C)O)[C@]23C)C(O)C(O)C1O (stereo partly drawn) | > 10
48 | C=C(Nc1nc2ccc(C)cc2s1)C(=O)C(CC)C(=O)C(CC)CC1C(=O)NC(=O)NC1=O (stereo not drawn) | > 100
49 | COc1ccc(OC)c(/C=C(/C#N)c2ccccc2)c1 | 45.5
50 | COC(=O)C(C(=O)Cc1ccccc1[N+](=O)[O-])C(=O)OC | > 100
51 | CCOC(=O)c1sc2c(c1OC(=O)c1ccc(OC)cc1)c(=O)n(-c1ccccc1)c(=S)n2-c1ccccc1 | 23
52 | O=C(Cn1c(-c2ccccc2)cc2ccccc21)N1CCCC1 | > 100
53 | C=CCN1CCC(O)(c2cc(C(=O)OCC)[nH]c2-c2cc(C)no2)C1 (stereo not drawn) | > 100
54 | CN(C)/N=C1/CCC(C(F)(F)F)(C(F)(F)F)O1 | 99.3
55 | N#Cc1c(-c2ccc(Cl)cc2)c(C#N)c(=O)n(NS(=O)(=O)c2ccccc2)c1O | > 100
56 | CCOC(=O)NNC(=O)NCCCCNC(=O)NNC(=O)OCC | > 100
57 | c1ccc2c(c1)SCCC2NC1=NCCO1 (stereo not drawn) | > 100
58 | C=CCN(C(=O)CNC(=O)C(F)(F)F)c1cc(OCc2ccccc2)c2c(c1)c(C)cn2S(=O)(=O)c1ccccc1 | > 100
